Common to all, as to assay type: biochemical
One assay addresses TACE (Homo sapiens, UniProt P78536). The assay can be described thus: TACE inhibition (fluorescent peptidyl substrate). The procedure:
Using 96-well black microtiter plates, each well receives a solution composed of 10 μL TACE (final concentration 1 μg/mL), 70 μL Tris buffer, pH 7.4 containing 10% glycerol (final concentration 10 mM), and 10 μL of test compound solution in DMSO (final concentration 1 μM, DMSO concentration <1%) and incubated for 10 minutes at room temperature. The reaction is initiated by addition of a fluorescent peptidyl substrate (final concentration 100 μM) to each well and then shaking on a shaker for 5 sec.
The reaction is read (excitation 340 nm, emission 420 nm) for 10 min. and the increase in fluorescence over time is plotted as a linear line. The slope of the line is calculated and represents the reaction rate.
The linearity of the reaction rate is confirmed (r^2>0.85). The mean (x±sem) of the control rate is calculated and compared for statistical significance (p<0.05) with drug-treated rates using Dunnett's multiple comparison test. Dose-response relationships can be generate using multiple doses of drug and IC50 values with 95% CI are estimated using linear regression.

In the next assay the target is MMP-13 (Homo sapiens, UniProt P45452). The assay can be described thus: MMP-13 inhibition (thiopeptide or fluorescent peptide substrate). On the procedure: (§1) These standard pharmacological test procedures are based on the cleavage of a thiopeptide substrates such as Ac-Pro-Leu-Gly(2-mercapto-4-methyl-pentanoyl)-Leu-Gly-OEt by the matrix metalloproteinases MMP-1, MMP-13 (collagenases) or MMP-9 (gelatinase), which results in the release of a substrate product that reacts calorimetrically with DTNB (5,5′-dithiobis(2-nitro-benzoic acid)). The enzyme activity is measured by the rate of the color increase. The thiopeptide substrate is made up fresh as a 20 mM stock in 100% DMSO and the DTNB is dissolved in 100% DMSO as a 100 mM stock and stored in the dark at room temperature. […] The buffer, enzyme, vehicle or inhibitor, and DTNB/substrate are added in this order to a 96 well plate (total reaction volume of 200 μl) and the increase in color is monitored spectrophotometrically for 5 minutes at 405 nm on a plate reader and the increase in color over time is plotted as a linear line.
(§2) Alternatively, a fluorescent peptide substrate is used. […] Upon cleavage of the substrate by an MMP, the fluorescence that is generated is quantitated on the fluorescence plate reader. […] The reaction is read (excitation 340 nm, emission 444 nm) for 10 min. and the increase in fluorescence over time is plotted as a linear line.
(§3) For either the thiopeptide or fluorescent peptide test procedures, the slope of the line is calculated and represents the reaction rate. […]

The next assay addresses MMP-9 (Homo sapiens, UniProt P14780). The assay can be described thus: MMP-9 inhibition (thiopeptide or fluorescent peptide substrate). On the procedure: as §1, §2, §3
The next assay concerns the target T1, MMP-1 (Homo sapiens, UniProt P03956).
T1 sequence (P03956 100-469): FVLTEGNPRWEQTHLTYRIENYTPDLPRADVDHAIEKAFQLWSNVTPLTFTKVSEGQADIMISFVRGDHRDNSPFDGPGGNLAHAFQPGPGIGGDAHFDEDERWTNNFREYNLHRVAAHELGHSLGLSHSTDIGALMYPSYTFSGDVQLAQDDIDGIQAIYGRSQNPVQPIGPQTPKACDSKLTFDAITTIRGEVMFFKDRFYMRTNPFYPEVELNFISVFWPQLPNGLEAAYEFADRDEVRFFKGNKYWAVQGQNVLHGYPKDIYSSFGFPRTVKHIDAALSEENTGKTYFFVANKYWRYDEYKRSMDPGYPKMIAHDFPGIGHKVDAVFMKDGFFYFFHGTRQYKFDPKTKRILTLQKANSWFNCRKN
The assay can be described thus: MMP-1 inhibition (thiopeptide or fluorescent peptide substrate). On the procedure:
as §1, §2, §3

Chain of TACE (P78536 215-824): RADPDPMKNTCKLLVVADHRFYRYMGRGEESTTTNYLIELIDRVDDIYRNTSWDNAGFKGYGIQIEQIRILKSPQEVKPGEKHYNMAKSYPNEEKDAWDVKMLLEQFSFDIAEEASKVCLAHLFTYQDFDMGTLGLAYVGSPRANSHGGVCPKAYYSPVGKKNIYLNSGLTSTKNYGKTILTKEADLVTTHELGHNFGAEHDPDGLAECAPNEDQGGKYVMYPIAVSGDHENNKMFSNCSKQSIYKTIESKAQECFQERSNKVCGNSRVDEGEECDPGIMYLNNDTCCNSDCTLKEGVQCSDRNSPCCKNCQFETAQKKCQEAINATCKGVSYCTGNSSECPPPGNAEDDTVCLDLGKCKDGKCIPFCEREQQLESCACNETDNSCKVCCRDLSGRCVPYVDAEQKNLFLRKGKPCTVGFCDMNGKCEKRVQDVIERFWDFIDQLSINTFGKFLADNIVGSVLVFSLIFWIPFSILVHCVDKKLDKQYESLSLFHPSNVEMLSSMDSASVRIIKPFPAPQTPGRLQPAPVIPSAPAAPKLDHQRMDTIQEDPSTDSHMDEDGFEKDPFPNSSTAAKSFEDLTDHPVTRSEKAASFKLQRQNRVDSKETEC
Chain of MMP-9 (P14780 94-707): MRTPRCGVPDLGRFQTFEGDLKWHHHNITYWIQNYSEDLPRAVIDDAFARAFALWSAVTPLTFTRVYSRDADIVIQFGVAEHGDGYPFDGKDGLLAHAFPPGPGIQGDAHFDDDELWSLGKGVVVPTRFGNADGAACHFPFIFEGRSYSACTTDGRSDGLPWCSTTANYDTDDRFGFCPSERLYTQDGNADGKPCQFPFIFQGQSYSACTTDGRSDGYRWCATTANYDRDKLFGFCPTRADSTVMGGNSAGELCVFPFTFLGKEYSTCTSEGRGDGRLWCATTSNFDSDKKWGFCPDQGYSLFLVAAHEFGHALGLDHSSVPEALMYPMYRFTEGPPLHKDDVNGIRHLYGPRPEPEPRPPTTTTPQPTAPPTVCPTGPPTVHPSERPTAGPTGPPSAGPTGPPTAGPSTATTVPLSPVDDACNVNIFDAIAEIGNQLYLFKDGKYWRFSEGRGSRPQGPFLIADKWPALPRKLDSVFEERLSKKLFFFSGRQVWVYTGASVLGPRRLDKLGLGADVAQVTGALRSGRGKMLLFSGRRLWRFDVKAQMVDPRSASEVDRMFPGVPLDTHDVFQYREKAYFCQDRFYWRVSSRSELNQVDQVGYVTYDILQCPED

In the case of `CC#CCOc1ccc(S(=O)(=O)N(C)c2c(C(=O)NO)cc(OC)nc2OC)cc1` [Example 33, 3-[Methyl-(4-but-2-ynyloxy-benzenesulfonyl)-animo]-N-hydroxy-2,6-dimethoxy-isonicotinamide], the IC50 – broadly, the midpoint of a concentration-inhibition curve – against TACE was 11 nM; at MMP-13, 478 nM; at MMP-9, 607 nM; at MMP-1 it was roughly 10000 nM.

`CC#CCOc1ccc(S(=O)(=O)Nc2c(C(=O)NO)cc(OC)nc2OC)cc1` [Example 35, 3-(4-But-2-ynyloxy-benzenesulfonylamino)-N-hydroxy-2,6-dimethoxy-isonicotinamide]: on TACE, the 50% inhibitory concentration (IC50) was 44 nM.

(Values after patent US20020188132A1, “Heteroaryl acetylenic sulfonamide and phosphinic acid amide hydroxamic acid TACE inhibitors” (priority 1999, published 2002).)
